Like-named read-outs stand apart in the source and are kept apart here. Marks after values point to notes of the source that are not given here.
Assays:
L1210 leukemia = assay type: in vivo, mice; conditions: for ILT, %: increase in lifetime compared to the control; for Average body weight gain, M ± m / Percent inhibition relative to control / Average weight gain, M ± m: ascite development
Method: (§1) These studies were carried out at the Institute for Toxicology, St. Petersburg, 2006, according to “Guidelines for the Study of Antitumor Activity of Pharmacological Agents” (“Manual on Experimental (Preclinical) Study of New Pharmacological Agents,” Ministry of Public Health of the Russian Federation, Remedium, Moscow, 2000, pp. 319-325).
(§2) The L1210 leukemia, breast adenocarcinoma Ca-755, and Lewis carcinoma (3LL) tumor cell strain were purchased from the Petrov Research Institute for Oncology, the Ministry of Public Health of the Russian Federation (St. Petersburg).
DBA/2 line mice with transplanted L1210 leukemia cells. Mouse ages: 6 to 8 weeks; body weights: 19 to 25 g.
(§3) The antitumor effect was ascertained through the following parameters: • ascite accumulation as animal body weight gain; • the lifetime of animals; and • tumor growth. The larger dimension of the tumor (length) and the smaller dimension normal thereto (width) were measured. The tumor volume was calculated, and the inhibition of tumor growth was calculated by a formula. The ascertainment criterion was the day when each individual tumor reached a volume of 500 mm^3.
During the experiment, the animals were weighed daily with the goal of evaluating ascite accumulation and studying the agents compared on this process.

[1] = tested on: type 1 human immunodeficiency virus; assay: Antiviral activity on HIV-1 infected human cell model; assay type: cell-based; conditions: for Cell survival rate, % / Number of cells × 10^3/mL / CPE/syncytia (+): HIV-1 infected cells; for CPE/syncytia (+): four-plus system
[2] = tested on: breast adenocarcinoma Ca-755; assay type: in vivo, mice; conditions: for ILT, %: increase in lifetime compared to the control
Method: as §1, §2
C 57 BL/6J line male mice with transplanted Ca-755 cells. Mouse ages: 6 to 8 weeks; body weights: 19 to 25 g.
as §3

[3] = tested on: Herpes simplex virus, type 1, Lg strain; assay: Anti-herpetic activity in the Vero cell culture; assay type: cell-based; conditions: for Optical density: MTT assay

Fullerene Poly(Aminocaproic Acid) of Formula C60(H3){NH(CH2)5COO—}3{NH3^+(CH2)5COOH}3 [Agent No. 1]
ALT in days, M ± m (L1210 leukemia; 100 mg/kg): 10.7 ± 37 days
ILT, % (L1210 leukemia; 100 mg/kg): 78.33%
ALT in days, M ± m (L1210 leukemia; 100 mg/kg, listed as agent): 10.7 ± 0.37 days
average lifetime (L1210 leukemia; 200 mg/kg): 10.60 ± 0.37 days
percent increase in lifetime compared to the control (L1210 leukemia; 200 mg/kg): 76.67%
ALT in days, M ± m (L1210 leukemia; 250 mg/kg): 10.60 ± 37 days
factor by which average body weight gain is lower at 250 mg/kg than at 100 mg/kg (L1210 leukemia; 250 mg/kg versus 100 mg/kg): 1.5
ILT, % (L1210 leukemia; 250 mg/kg): 76.67%
Average body weight gain, M ± m (L1210 leukemia; 100 mg/kg, day 1): 0.3 ± 0.2
Average body weight gain, M ± m (L1210 leukemia; 100 mg/kg, day 2): 0.8 ± 0.4
Average body weight gain, M ± m (L1210 leukemia; 100 mg/kg, day 3): 2.5 ± 0.5
Percent inhibition relative to control (L1210 leukemia; 100 mg/kg, day 3): 50.0%*
Average body weight gain, M ± m (L1210 leukemia; 100 mg/kg, day 4): 4.2 ± 1.0
Percent inhibition relative to control (L1210 leukemia; 100 mg/kg, day 4): 63.2%*
Average body weight gain, M ± m (L1210 leukemia; 100 mg/kg, day 5): 8.4 ± 1.2
Percent inhibition relative to control (L1210 leukemia; 100 mg/kg, day 5): 48.5%*
Average body weight gain, M ± m (L1210 leukemia; 100 mg/kg, day 6): 12.1 ± 2.1
Percent inhibition relative to control (L1210 leukemia; 100 mg/kg, day 6): 42.9%*
Average body weight gain, M ± m (L1210 leukemia; 100 mg/kg, day 7): 14.2 ± 2.2
Percent inhibition relative to control (L1210 leukemia; 100 mg/kg, day 7): 46.0%*
Average weight gain, M ± m (L1210 leukemia; 250 mg/kg, day 1): 0.3 ± 0.1
Average weight gain, M ± m (L1210 leukemia; 250 mg/kg, day 2): 0.5 ± 0.3
Average weight gain, M ± m (L1210 leukemia; 250 mg/kg, day 3): 1.1 ± 0.4
Percent inhibition relative to control (L1210 leukemia; 250 mg/kg, day 3): 78.0%*
Average weight gain, M ± m (L1210 leukemia; 250 mg/kg, day 4): 2.8 ± 0.9
Percent inhibition relative to control (L1210 leukemia; 250 mg/kg, day 4): 75.4%*
Average weight gain, M ± m (L1210 leukemia; 250 mg/kg, day 5): 4.7 ± 1.2
Percent inhibition relative to control (L1210 leukemia; 250 mg/kg, day 5): 71.2%*
Average weight gain, M ± m (L1210 leukemia; 250 mg/kg, day 6): 8.4 ± 1.6
Percent inhibition relative to control (L1210 leukemia; 250 mg/kg, day 6): 60.4%*
Average weight gain, M ± m (L1210 leukemia; 250 mg/kg, day 7): 10.0 ± 1.3
Percent inhibition relative to control (L1210 leukemia; 250 mg/kg, day 7): 62.0%*
intoxication signatures (L1210 leukemia; mouse, in vivo): No intoxication signatures were detected
Cell survival rate, % ([1]; 0.5 mcg/mL): 18%
Number of cells × 10^3/mL ([1]; 0.5 mcg/mL): 33 × 10^3/mL
CPE/syncytia (+) ([1]; 0.5 mcg/mL): 4.0 (+)
Cell survival rate, % ([1]; 1.0 mcg/mL): 26%
Number of cells × 10^3/mL ([1]; 1.0 mcg/mL): 495 × 10^3/mL
CPE/syncytia (+) ([1]; 1.0 mcg/mL): 4.0 (+)
Cell survival rate, % ([1]; 5.0 mcg/mL): 98%
Number of cells × 10^3/mL ([1]; 5.0 mcg/mL): 633 × 10^3/mL
CPE/syncytia (+) ([1]; 5.0 mcg/mL): 0 (+)
Cell survival rate, % ([1]; 10 mcg/mL): 98%
Number of cells × 10^3/mL ([1]; 10 mcg/mL): 600 × 10^3/mL
CPE/syncytia (+) ([1]; 10 mcg/mL): 0 (+)
EC50 (50% effective concentration) ([1]; type 1 human immunodeficiency virus): 0.9 µg/mL
ALT in days, M ± m ([2]; 100 mg/kg): 71.9 ± 2.58 days
ILT, % ([2]; 100 mg/kg): 89.71%
ALT in days, M ± m ([2]; 100 mg/kg, listed as agent): 71.9 ± 2.58 days
average lifetime ([2]; 200 mg/kg): 73.4+0.92 days
percent increase in lifetime compared to the control ([2]; 200 mg/kg): 93.67%
ALT in days, M ± m ([2]; 250 mg/kg): 73.40 ± 0.92 days
ILT, % ([2]; 250 mg/kg): 93.67%
intoxication signatures ([2]; mouse, in vivo): No intoxication signatures were detected
protection of cells from the cytodestructive effect of the virus ([3]; 100 TCD50, agent 60 minutes prior to infecting, all concentrations from 5.0 mcg/mL and higher): completely protects
protection of cell culture from the cytodestructive effect of the virus ([3]; 1000 TCD50/0.2 mL, infected 60 minutes post inserting the agent): complete protection
Optical density ([3]; 100 TCD50, 5.0 mcg/mL): 1.110 ± 0.08
Optical density ([3]; 100 TCD50, 10.0 mcg/mL): 1.015 ± 0.07
Optical density ([3]; 100 TCD50, 50.0 mcg/mL): 1.153 ± 0.06
Optical density ([3]; 100 TCD50, 100.0 mcg/mL): 1.79 ± 0.05
Optical density ([3]; 1000 TCD50, 5.0 mcg/mL): 1.027 ± 0.04
Optical density ([3]; 1000 TCD50, 10.0 mcg/mL): 1.021 ± 0.04
Optical density ([3]; 1000 TCD50, 50.0 mcg/mL): 1.033 ± 0.03
Optical density ([3]; 1000 TCD50, 100.0 mcg/mL): 1.083 ± 0.01

— patent US9221746B2, “Homo- and hetero-polyamino-acid derivatives of fullerene C60, method for producing same, and pharmaceutical compositions based on said derivatives” (priority 2011, dated 2015)
